# Experimental data as given in the kinase profiling compilation of Christmann-Franck et al. (2016).
# Columns and labels:
# Assay in all cases: KINOMEscan competition binding
# Details in all cases: compound 1.0 µM
# MYO3B (human) = MYO3B (human) (UniProt Q8WXR4)
# [1] = tested on: ABL1 (human), P00519 [Q252H]
# [2] = tested on: EIF2AK4 KD2 (human), Q9P2K8 [S808G]
# MAPKAPK5 (human) = MAPKAPK5 (human) (UniProt Q8IW41)
# CSNK1E (human) = CSNK1E (human) (UniProt P49674)
# CSK (human) = CSK (human) (UniProt P41240)
# Chain of CSK (human) (P41240 whole entry, looked up): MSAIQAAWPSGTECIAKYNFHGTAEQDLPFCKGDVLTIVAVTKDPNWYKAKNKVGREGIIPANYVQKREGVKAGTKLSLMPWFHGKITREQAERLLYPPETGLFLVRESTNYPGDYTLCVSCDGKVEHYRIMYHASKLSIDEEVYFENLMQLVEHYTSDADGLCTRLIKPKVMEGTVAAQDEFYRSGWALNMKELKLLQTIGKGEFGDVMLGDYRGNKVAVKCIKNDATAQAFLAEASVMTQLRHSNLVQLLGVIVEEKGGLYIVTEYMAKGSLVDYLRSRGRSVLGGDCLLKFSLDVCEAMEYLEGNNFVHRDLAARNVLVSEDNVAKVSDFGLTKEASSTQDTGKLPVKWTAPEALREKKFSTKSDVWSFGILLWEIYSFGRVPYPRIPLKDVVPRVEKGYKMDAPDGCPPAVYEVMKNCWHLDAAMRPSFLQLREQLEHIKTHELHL
# MAP3K12 (human) = MAP3K12 (human) (UniProt Q12852)
# Chain of MAP3K12 (human) (Q12852 whole entry, looked up): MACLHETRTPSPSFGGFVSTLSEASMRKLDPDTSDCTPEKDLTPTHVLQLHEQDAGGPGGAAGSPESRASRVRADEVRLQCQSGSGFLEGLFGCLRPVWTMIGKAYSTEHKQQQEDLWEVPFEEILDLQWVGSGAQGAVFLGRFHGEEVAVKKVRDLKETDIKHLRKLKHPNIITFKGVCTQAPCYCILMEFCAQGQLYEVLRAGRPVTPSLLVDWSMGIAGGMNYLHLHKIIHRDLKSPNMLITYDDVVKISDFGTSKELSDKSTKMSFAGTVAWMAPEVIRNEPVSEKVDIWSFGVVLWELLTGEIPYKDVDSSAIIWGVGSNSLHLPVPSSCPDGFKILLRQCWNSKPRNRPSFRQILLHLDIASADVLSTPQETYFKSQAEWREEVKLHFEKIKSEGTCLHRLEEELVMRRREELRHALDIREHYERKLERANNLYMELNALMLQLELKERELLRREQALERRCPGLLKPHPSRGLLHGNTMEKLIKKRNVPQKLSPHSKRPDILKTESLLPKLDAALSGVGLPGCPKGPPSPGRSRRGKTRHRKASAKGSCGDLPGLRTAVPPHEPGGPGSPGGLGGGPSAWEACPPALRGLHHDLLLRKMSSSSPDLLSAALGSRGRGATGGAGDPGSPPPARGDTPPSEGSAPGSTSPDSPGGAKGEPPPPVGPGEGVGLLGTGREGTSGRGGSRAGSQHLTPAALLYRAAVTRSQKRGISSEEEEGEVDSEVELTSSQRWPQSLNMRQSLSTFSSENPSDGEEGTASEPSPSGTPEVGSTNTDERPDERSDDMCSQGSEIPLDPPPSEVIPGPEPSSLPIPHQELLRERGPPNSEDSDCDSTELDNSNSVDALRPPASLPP
# [3] = target: TYK2 JH2 pseudokinase (human) (UniProt P29597)
# TBK1 (human) = TBK1 (human) (UniProt Q9UHD2)
# [4] = tested on: ABL1 (human), P00519 [M351T]
# [5] = tested on: ABL1 (human), P00519 [T315I]
# MKNK1 (human) = MKNK1 (human) (UniProt Q9BUB5)
# [6] = tested on: FLT3 (human), P36888 [N841I]
# CDKL2 (human) = CDKL2 (human) (UniProt Q92772)
# CAMK2G (human) = CAMK2G (human) (UniProt Q13555)
# MST1R (human) = MST1R (human) (UniProt Q04912)
# [7] = tested on: EGFR (human), P00533 [747-751 del / S ins]
# PDPK1 (human) = PDPK1 (human) (UniProt O15530)
# TNNI3K (human) = TNNI3K (human) (UniProt Q59H18)
# EPHB6 (human) = EPHB6 (human) (UniProt O15197)
# PIP5K1A (human) = PIP5K1A (human) (UniProt Q99755)
# MATK (human) = MATK (human) (UniProt P42679)
# STK33 (human) = STK33 (human) (UniProt Q9BYT3)
# ITK (human) = ITK (human) (UniProt Q08881)
# ALK (human) = ALK (human) (UniProt Q9UM73)
# MAP3K11 (human) = MAP3K11 (human) (UniProt Q16584)
# MYLK2 (human) = MYLK2 (human) (UniProt Q9H1R3)
# PRKACA (human) = PRKACA (human) (UniProt P17612)
# LIMK1 (human) = LIMK1 (human) (UniProt P53667)
# FGFR1 (human) = FGFR1 (human) (UniProt P11362)
# Chain of FGFR1 (human) (P11362 whole entry, looked up): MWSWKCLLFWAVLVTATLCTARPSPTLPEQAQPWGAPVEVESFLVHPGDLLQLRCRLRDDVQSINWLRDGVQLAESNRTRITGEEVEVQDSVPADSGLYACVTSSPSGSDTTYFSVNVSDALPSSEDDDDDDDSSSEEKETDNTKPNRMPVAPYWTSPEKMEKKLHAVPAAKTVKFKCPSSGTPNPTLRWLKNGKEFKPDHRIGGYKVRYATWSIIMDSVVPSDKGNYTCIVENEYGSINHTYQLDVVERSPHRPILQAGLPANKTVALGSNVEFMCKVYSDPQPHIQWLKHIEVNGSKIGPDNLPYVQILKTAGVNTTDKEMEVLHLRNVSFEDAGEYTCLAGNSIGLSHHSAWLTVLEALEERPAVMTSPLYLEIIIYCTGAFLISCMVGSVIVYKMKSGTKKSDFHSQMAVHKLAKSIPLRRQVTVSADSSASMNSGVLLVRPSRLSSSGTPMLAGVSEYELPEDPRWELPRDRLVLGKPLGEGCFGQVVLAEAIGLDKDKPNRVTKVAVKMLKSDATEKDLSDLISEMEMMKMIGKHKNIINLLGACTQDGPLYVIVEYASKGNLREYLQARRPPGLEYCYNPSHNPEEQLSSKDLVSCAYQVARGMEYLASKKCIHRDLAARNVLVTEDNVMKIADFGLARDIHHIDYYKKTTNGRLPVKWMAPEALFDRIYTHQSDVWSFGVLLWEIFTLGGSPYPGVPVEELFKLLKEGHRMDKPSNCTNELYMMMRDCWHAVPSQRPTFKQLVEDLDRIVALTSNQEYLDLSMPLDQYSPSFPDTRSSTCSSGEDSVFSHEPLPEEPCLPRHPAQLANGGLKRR
# WEE1 (human) = WEE1 (human) (UniProt P30291)
# Chain of WEE1 (human) (P30291 whole entry, looked up): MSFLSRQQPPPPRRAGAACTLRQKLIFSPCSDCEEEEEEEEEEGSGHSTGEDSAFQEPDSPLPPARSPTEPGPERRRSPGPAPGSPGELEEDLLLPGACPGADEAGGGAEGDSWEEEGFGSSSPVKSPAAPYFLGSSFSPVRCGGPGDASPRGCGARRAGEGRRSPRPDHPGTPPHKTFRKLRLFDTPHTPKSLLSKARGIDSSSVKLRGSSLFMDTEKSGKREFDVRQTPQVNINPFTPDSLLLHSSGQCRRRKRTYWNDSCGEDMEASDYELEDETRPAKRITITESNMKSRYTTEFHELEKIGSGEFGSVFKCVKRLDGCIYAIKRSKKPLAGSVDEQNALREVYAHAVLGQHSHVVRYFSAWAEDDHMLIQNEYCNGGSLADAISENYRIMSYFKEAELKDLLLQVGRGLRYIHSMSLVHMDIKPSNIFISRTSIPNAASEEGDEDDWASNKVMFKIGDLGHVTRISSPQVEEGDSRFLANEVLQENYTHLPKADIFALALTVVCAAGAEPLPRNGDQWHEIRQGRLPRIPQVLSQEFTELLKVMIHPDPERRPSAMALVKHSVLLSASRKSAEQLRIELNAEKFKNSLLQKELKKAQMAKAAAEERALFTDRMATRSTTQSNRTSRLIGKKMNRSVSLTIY
# PRKCQ (human) = PRKCQ (human) (UniProt Q04759)
# [8] = target: JAK1 JH1 catalytic (human) (UniProt P23458)
# Chain of JAK1 JH1 catalytic (human) (P23458 whole entry, looked up): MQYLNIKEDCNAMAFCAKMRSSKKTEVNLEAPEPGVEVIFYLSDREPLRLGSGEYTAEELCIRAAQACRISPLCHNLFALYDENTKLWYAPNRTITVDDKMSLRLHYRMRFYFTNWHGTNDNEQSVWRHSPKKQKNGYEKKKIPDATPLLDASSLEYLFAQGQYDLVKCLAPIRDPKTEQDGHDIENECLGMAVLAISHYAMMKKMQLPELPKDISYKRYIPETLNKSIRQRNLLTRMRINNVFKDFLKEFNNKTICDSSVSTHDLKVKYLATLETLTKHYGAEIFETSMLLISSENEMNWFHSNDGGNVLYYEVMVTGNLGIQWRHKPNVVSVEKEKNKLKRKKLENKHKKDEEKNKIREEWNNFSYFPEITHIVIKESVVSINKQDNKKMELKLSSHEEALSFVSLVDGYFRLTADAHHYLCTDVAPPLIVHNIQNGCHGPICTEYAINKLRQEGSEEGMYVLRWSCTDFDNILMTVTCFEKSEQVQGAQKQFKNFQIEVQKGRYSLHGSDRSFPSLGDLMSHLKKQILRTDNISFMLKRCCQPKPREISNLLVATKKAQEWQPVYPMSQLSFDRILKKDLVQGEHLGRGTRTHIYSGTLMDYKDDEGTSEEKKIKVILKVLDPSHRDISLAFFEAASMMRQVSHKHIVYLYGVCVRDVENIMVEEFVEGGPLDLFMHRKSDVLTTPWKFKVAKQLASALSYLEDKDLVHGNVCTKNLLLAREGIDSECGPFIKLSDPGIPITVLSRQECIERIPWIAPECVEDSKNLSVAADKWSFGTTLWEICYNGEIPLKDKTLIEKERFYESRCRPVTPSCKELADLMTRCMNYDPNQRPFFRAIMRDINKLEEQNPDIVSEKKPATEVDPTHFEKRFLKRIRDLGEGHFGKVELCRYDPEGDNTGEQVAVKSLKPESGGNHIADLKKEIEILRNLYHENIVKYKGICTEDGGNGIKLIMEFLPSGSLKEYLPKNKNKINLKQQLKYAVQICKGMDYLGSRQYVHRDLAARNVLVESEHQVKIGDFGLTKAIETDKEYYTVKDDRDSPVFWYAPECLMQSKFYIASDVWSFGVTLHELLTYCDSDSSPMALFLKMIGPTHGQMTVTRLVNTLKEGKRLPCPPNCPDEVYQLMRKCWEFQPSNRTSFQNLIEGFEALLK
# MAP2K2 (human) = MAP2K2 (human) (UniProt P36507)
# Chain of MAP2K2 (human) (P36507 whole entry, looked up): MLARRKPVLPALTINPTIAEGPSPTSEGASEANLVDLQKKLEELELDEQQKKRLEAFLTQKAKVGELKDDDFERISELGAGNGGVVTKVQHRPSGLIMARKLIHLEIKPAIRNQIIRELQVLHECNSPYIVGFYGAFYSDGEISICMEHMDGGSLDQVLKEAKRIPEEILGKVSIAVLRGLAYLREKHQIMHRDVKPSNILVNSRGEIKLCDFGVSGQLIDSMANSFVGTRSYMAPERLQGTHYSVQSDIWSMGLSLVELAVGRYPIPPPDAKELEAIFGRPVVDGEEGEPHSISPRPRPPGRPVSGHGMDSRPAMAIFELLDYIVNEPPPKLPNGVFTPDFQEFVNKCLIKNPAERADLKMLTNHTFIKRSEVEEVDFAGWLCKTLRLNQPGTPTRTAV
# DCLK1 (human) = DCLK1 (human) (UniProt O15075)
# PLK4 (human) = PLK4 (human) (UniProt O00444)
# [9] = tested on: EGFR (human), P00533 [746-750 del]
# SRMS (human) = SRMS (human) (UniProt Q9H3Y6)
# MAP4K5 (human) = MAP4K5 (human) (UniProt Q9Y4K4)
# STK16 (human) = STK16 (human) (UniProt O75716)
# Chain of STK16 (human) (O75716 whole entry, looked up): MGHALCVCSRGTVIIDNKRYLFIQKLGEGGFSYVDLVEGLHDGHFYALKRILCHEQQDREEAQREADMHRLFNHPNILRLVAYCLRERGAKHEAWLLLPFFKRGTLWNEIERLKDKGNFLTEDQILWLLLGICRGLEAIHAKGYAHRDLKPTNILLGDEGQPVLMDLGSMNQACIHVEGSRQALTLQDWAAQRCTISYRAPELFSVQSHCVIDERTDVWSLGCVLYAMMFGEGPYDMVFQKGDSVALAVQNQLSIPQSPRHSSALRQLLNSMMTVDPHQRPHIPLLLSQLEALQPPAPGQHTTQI
# Chain of CSNK1E (human) (P49674 whole entry, looked up): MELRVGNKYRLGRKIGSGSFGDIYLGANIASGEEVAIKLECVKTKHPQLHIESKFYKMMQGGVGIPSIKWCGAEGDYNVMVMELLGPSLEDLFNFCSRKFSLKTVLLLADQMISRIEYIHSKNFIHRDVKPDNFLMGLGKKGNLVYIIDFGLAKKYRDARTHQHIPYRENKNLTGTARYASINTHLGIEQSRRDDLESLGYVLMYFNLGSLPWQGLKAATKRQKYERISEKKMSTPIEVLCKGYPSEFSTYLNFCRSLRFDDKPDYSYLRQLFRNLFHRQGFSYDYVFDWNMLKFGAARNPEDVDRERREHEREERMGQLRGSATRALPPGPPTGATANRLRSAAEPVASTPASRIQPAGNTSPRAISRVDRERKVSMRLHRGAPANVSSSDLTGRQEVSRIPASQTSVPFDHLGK
structure (smiles),measurement,setting,value
Nc1cc(C(F)(F)F)c(-c2cc(N3CCOCC3)nc(N3CCOCC3)n2)cn1,inhibition of binding,MYO3B (human),1%
same,inhibition of binding,[1],0%
same,inhibition of binding,[2],35%
same,inhibition of binding,MAPKAPK5 (human),0%
same,inhibition of binding,CSNK1E (human),7%
same,inhibition of binding,CSK (human),8%
same,inhibition of binding,MAP3K12 (human),0%
same,inhibition of binding,[3],12%
same,inhibition of binding,TBK1 (human),0%
same,inhibition of binding,[4],0%
same,inhibition of binding,[5],2%
same,inhibition of binding,MKNK1 (human),0%
same,inhibition of binding,[6],6%
same,inhibition of binding,CDKL2 (human),0%
same,inhibition of binding,CAMK2G (human),0%
same,inhibition of binding,MST1R (human),0%
same,inhibition of binding,[7],4%
same,inhibition of binding,PDPK1 (human),0%
same,inhibition of binding,TNNI3K (human),0%
same,inhibition of binding,EPHB6 (human),3%
same,inhibition of binding,PIP5K1A (human),0%
same,inhibition of binding,MATK (human),28%
same,inhibition of binding,STK33 (human),0%
same,inhibition of binding,ITK (human),0%
same,inhibition of binding,ALK (human),6%
same,inhibition of binding,MAP3K11 (human),0%
same,inhibition of binding,MYLK2 (human),5%
same,inhibition of binding,PRKACA (human),0%
same,inhibition of binding,LIMK1 (human),0%
same,inhibition of binding,FGFR1 (human),0%
same,inhibition of binding,WEE1 (human),2%
same,inhibition of binding,PRKCQ (human),0%
same,inhibition of binding,[8],38%
same,inhibition of binding,MAP2K2 (human),0%
same,inhibition of binding,DCLK1 (human),7%
same,inhibition of binding,PLK4 (human),1%
same,inhibition of binding,[9],0%
same,inhibition of binding,SRMS (human),0%
same,inhibition of binding,MAP4K5 (human),0%
same,inhibition of binding,STK16 (human),0%
